The conditions of data set [1]: 280-320 nm; cited from earlier work.
For data set [2] the following is noted: cited from earlier work.
A short description of data set [3]: UV spectra measured in a UV spectrometer (Perkin-Elmer), path length one centimeter. The data set is classed as physicochemical. The following applies: ethanol, c=1 mg/100 ml. As to the method: The UV spectra were measured in a UV spectrometer from Perkin-Elmer at a path length of one centimeter.
The next data set can be described thus: Solubility. The data set is classed as physicochemical. Conditions: organic solvent or mixture.

Converted amounts (≈) assume the structure as drawn. Where two headings read alike, the source gives them in different places.

By solubility is commonly meant how much of the substance goes into solution per volume.

For `O=S(=O)(O)c1ccc2[nH]c(-c3ccccc3)nc2c1` [EUSOLEX® 232], the “filter quality in the UVB range” value in data set [1] was “good filters”.
With `Cc1ccc(C=C2C(=O)C3(C)CCC2C3(C)C)cc1` (stereo not shown) [EUSOLEX® 6300], the “filter quality in the UVB range” value in data set [1] is “good filters”.
As for `CC(C)c1ccc(C(=O)CC(=O)c2ccccc2)cc1` [EUSOLEX® 8020], in data set [2], the “stability when exposed to UV irradiation” value was “do not have an unlimited stability”.
For `CCCCC(CC)COc1ccc(OCC(CC)CCCC)c(-c2nc3ccccc3[nH]2)c1` (stereo not shown) [Example 1, 2-2',5'-Di(2-ethylhexyloxy)phenyl!benzimidazole], in data set [3], the “E at λmax1” value was determined as 0.34, the “E at λmax2” value came out at 0.30, the λmax1 was 303 nm and the λmax2 was 328 nm.
`CCCCC(CC)COc1c(OC)ccc(-c2nc3ccccc3[nH]2)c1OC` (stereo not shown) [Example 2]: in data set [3], the “E at λmax1” value stood at 0.51, the “E at λmax2” value was 0.45, the λmax1 was determined as 297 nm and the λmax2 is recorded as 308 nm. The solubility in “Solubility” (isopropanol, read-out: Solubility in Isopropanol) was determined as 640 mg/mL (≈ 1670 mM). Besides, the solubility in the data set “Solubility” (miglyol, read-out: Solubility in Miglyol) came to 590 mg/mL (≈ 1540 mM). In addition, in the data set “Solubility” (paraffin, read-out: Solubility in Paraffin), the solubility came to 57 mg/mL (≈ 149 mM).
On to `COc1ccc(-c2nc3ccccc3[nH]2)c(OC)c1OC` [Example 2a, 2-(2',3',4'-Trimethoxy)phenylbenzimidazole], for which, in data set [3], the “E at λmax1” value was found to be 0.76, the “E at λmax2” value is 0.42, the λmax1 is reported as 309 nm and the λmax2 is listed as 323 nm.
With `COc1ccc(C(=O)CC(=O)c2ccc(C(C)(C)C)cc2)cc1` [PARSOL® 1789], the “stability when exposed to UV irradiation” value in data set [2] was “do not have an unlimited stability”.

The values are drawn from patent US5501850A, “Use of benzimidazole derivatives as light protection filters” (Merck Patent Gesellschaft mit beschrankter Haftung, priority 1992, dated 1996).
